According to ChEMBL document CHEMBL1770073, “Synthesis of cinnamoyl ketoamides as hybrid structures of antioxidants and calpain inhibitors” (Bioorg Med Chem Lett, 2011):

Columns and labels:
[1] = target: T1, Calpain-1 catalytic subunit (Homo sapiens, UniProt P07384); assay: Inhibition of human erythrocytes mu-calpain using Suc-Leu-Tyr-AMC fluorogenic substrate after 30 mins by spectrofluorimetry
T1 sequence (P07384 whole entry): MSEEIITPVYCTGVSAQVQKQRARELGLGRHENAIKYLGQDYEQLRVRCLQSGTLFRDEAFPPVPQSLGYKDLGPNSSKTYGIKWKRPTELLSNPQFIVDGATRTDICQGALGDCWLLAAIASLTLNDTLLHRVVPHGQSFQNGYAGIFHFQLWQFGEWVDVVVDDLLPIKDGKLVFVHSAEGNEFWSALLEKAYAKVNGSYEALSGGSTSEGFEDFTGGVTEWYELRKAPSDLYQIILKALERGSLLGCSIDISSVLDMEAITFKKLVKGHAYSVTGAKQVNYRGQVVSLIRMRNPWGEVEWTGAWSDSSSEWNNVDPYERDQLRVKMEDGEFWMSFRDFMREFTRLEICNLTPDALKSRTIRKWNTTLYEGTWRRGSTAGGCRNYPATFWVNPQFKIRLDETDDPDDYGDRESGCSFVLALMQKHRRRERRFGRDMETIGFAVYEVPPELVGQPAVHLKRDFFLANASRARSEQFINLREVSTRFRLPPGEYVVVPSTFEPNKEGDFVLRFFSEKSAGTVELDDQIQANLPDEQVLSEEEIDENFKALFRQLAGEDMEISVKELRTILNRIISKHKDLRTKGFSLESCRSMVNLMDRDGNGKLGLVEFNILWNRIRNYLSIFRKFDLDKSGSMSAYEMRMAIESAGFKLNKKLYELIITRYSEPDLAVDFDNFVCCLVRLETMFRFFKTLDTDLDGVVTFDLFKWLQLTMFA

[2] = tested on: Radical scavenging activity; assay: Antioxidant activity assessed as DPPH free radical scavenging activity after 30 mins; assay type: functional
[3] = Antioxidant activity assessed as xanthine-xanthine oxidase generated superoxide anion scavenging after 20 mins; assay type: functional
Liver = assay: Antioxidant activity in rat liver homogenates assessed as inhibition of lipid peroxidation by measuring formation of thiobarbituric acid-reactive substance after 30 mins; assay type: functional, tissue-based; conditions: 0.5 h

IC50 [1] | IC50 [2] | IC50 [3] | IC50 (Liver) | SMILES
6.07 µM | 40.4 µM | 31.2 µM | 7.53 µM | O=C(/C=C/c1ccc(O)c(O)c1)N[C@@H](Cc1ccccc1)C(=O)C(=O)NCc1ccccc1
0.07 µM | > 100 µM | > 100 µM | > 100 µM | Cc1c(C(=O)N[C@@H](Cc2ccccc2)C(=O)C(N)=O)oc2ccccc2c1=O
 | > 100 µM | > 100 µM | > 100 µM | COc1ccc(OC)c(C(=O)CCC(=O)N[C@@H](Cc2ccccc2)C(=O)C(N)=O)c1
0.61 µM | 45.5 µM | 15.5 µM | 6.09 µM | CC/C(=C\c1ccc(O)c(O)c1)C(=O)N[C@@H](Cc1ccccc1)C(=O)C(=O)NCc1ccccc1 (stereo in doubt)
0.46 µM | 46.1 µM | 29.2 µM | 6.4 µM | CC/C(=C\c1ccc(O)c(O)c1)C(=O)N[C@@H](Cc1ccccc1)C(=O)C(=O)NCCc1ccc(OC)cc1 (stereo in doubt)
0.36 µM | 42.2 µM | 27.1 µM | 6.15 µM | CCC/C(=C\c1ccc(O)c(O)c1)C(=O)N[C@@H](Cc1ccccc1)C(=O)C(=O)NCc1ccccc1 (stereo in doubt)
0.13 µM | 48.6 µM | 38 µM | 5.71 µM | CCC/C(=C\c1ccc(O)c(O)c1)C(=O)N[C@@H](Cc1ccccc1)C(=O)C(=O)NCCc1ccc(OC)cc1 (stereo in doubt)
0.67 µM | 36.7 µM | 30.9 µM | 7.34 µM | CCCC/C(=C\c1ccc(O)c(O)c1)C(=O)N[C@@H](Cc1ccccc1)C(=O)C(=O)NCc1ccccc1 (stereo in doubt)
0.5 µM | 38.9 µM | 41.4 µM | 5.88 µM | CCCC/C(=C\c1ccc(O)c(O)c1)C(=O)N[C@@H](Cc1ccccc1)C(=O)C(=O)NCCc1ccc(OC)cc1 (stereo in doubt)
0.32 µM | 44.6 µM | 41.7 µM | 6.06 µM | CC(C)C/C(=C\c1ccc(O)c(O)c1)C(=O)N[C@@H](Cc1ccccc1)C(=O)C(=O)NCc1ccccc1 (stereo in doubt)
0.63 µM | > 100 µM | > 100 µM | 36.1 µM | CCCC/C(=C\c1ccc(O)c(OC)c1)C(=O)N[C@@H](Cc1ccccc1)C(=O)C(=O)NCCc1ccc(OC)cc1 (stereo in doubt)
1.38 µM | > 100 µM | > 100 µM | > 100 µM | CCCC/C(=C\c1ccc(OC)c(OC)c1)C(=O)N[C@@H](Cc1ccccc1)C(=O)C(=O)NCCc1ccc(OC)cc1 (stereo in doubt)
 | 30.8 µM | > 100 µM | > 100 µM | O=C1O[C@H]([C@@H](O)CO)C(O)=C1O [ASCORBIC ACID]
 |  |  | 71.4 µM | Cc1c(C)c2c(c(C)c1O)CCC(C)(C(=O)O)O2 (stereo unspecified) [TROLOX]
